In paper PMC8359396, “Pharmacological validation of TDO as a target for Parkinson’s disease” (The Febs Journal, 2021):

Columns and labels:
[1] = system: rotenone‐induced mouse model of PD; test: TH‐positive (dopaminergic) cells in substantia nigra, iDISCO; type: in vivo, male C57BL/6NCrl mice; conditions: rotenone mice, P < 0.01
[2] = system: rotenone‐induced mouse model of PD; test: GFAP immunofluorescent staining of colon in rotenone model; type: in vivo, male C57BL/6NCrl mice; conditions: rotenone mice
Procedure: (§1) Parkinson’s disease is associated with the activation of glial cells in the enteric nervous system. Furthermore, aggregates of α‐synuclein have been observed in the enteric nervous system of PD patients. The expression of glial fibrillary acidic protein (GFAP), a marker of enteric glial cells, and of α‐synuclein was determined by immunofluorescent staining of fixed sections of the colons of the sacrificed mice.
(§2) Expression of GFAP and α‐synuclein in colonic tissue was determined using confocal microscopy (Leica SP8). The colons of the mice were embedded in paraffin. Sections of 15 µm were cut and incubated with 0.3% (v/v) H2O2 for 30 min, rehydrated and incubated with citrate buffer. Following blocking with serum, the sections were incubated overnight with rabbit anti‐α‐synuclein (Millipore, cat. no. AB5038; Burlington, MA, USA) at a dilution of 1 : 1000, or rabbit anti‐GFAP (Dako, cat. no. Z0334), 1 : 1000. After incubation with Alexa® 488‐labeled donkey anti‐rabbit secondary antibody, the slides were mounted using Vectashield® medium for fluorescence with DAPI (Vector Laboratories, cat. no. H‐1000; Burlingame, CA, USA).
(§3) Immunofluorescence images were made using a Keyence BZ‐9000 microscope. GFAP and α‐synuclein staining were quantified by calculation of the corrected total fluorescence (CTF) with the formula: integrated density – (area × mean fluorescence of background reading).

[3] = system: rotenone‐induced mouse model of PD; test: Intestinal transit of Evans blue in rotenone model; type: in vivo, male C57BL/6NCrl mice; conditions: P < 0.0001
Procedure: The dye was injected intragastrically, thirty minutes before the sacrifice of the mice. Intestinal transit was measured as the distance travelled by the dye from the pylorus to the most distal part of the colon.

[4] = system: any cell line used in this study; test: Cell viability assay (ATPlite 1Step); conditions: in parallel with the cell‐based NFK Green assays
Procedure: In parallel with the cell‐based NFK Green assays, the cytotoxicity of the compounds was determined in cell viability assays using ATPlite™ 1Step (PerkinElmer, Groningen, The Netherlands).

[5] = system: rotenone‐induced mouse model of PD; test: α‐Synuclein immunofluorescent staining of colon in rotenone model; type: in vivo, male C57BL/6NCrl mice; conditions: rotenone mice
Procedure: as §1, §2, §3

SW48 (hTDO) = SW48 (hTDO) (Homo sapiens, UniProt P48775); test: cell-based
recombinant hIDO1 = recombinant hIDO1 (Homo sapiens, UniProt P14902); test: IDO1 biochemical assay (NFK Green); conditions: for inhibition at 0.6 µM: read-out: inhibition hIDO1
mouse TDO (mTDO) = mouse TDO (mTDO) (Mus musculus, UniProt P48776); test: TDO biochemical assay (NFK Green), mTDO
[6] = system: rotenone‐induced mouse model of PD; test: Spatial memory test in rotenone model; conditions: rotenone mice, 42 days after surgery
[7] = target: T1, human MDR1 P‐glycoprotein‐overexpressing MDCK cells (Homo sapiens, UniProt P08183); test: Bi‐directional transport assay, MDCK‐MDR1 monolayer; type: in vitro ADME; conditions: MDCK‐MDR1, with and without elacridar
T1 construct: host or cells: MDCK (canine kidney)
Procedure: (§4) To determine whether NTRC 3531‐0 could potentially enter the brain, a bi‐directional transport assay was performed with Madin‐Darby canine kidney (MDCK) cells overexpressing the human ABCB1 gene‐encoded MDR1 P‐glycoprotein (MDCK‐MDR1) at Cyprotex (Macclesfield, UK). MDCK‐MDR1 cells form a confluent monolayer in Transwell® cell culture plates (Corning) and express active MDR1 P‐glycoprotein at the apical side. The cell model is a surrogate model of the brain capillary endothelial cell layer that constitutes the blood–brain barrier. The transport of NTRC 3531‐0 from the apical (A) to the basolateral (B) side of the monolayer (P app, A to B), and from basolateral (B) to apical (A) (P app, B to A), was determined by measuring compound levels in the two compartments of the Transwell plates by liquid chromatography–tandem mass spectrometry (LC‐MS/MS) (Table 2). Transport assays were performed in the absence and presence of the P‐glycoprotein inhibitor elacridar.

[8] = target: T2, human MDR1 P-glycoprotein (ABCB1) (Homo sapiens, UniProt P08183); test: as above; type: in vitro ADME; conditions: dog; MDCK‐MDR1; Elacridar −
T2 construct: host or cells: MDCK (canine kidney)
Procedure: as §4

TDO activity in vivo = test: Trp and Kyn levels in plasma and brain of the PK studies (LC‐MS/MS); parameters: species or system male C57BL/6NCrl mice; conditions: mice
[9] = system: rotenone‐induced mouse model of PD; test: Colon length in rotenone model; conditions: rotenone mice, P < 0.05
[10] = In vivo pharmacokinetics and brain penetration; conditions: for bioavailability / AUC / Cmax / half-life / Kp / Kp at 5 days / Kp uu: male, C57BL/6NCrl, mouse, in vivo; for bioavailability: F (oral bioavailability); for bioavailability / AUC / Cmax / half-life / Kp uu / AUCbrain / F (oral bioavailability): mice; for AUC: AUCplasma; for Cmax: plasma; for half-life: t½; for Kp uu: Kpuu (unbound brain‐to‐plasma partition coefficient)
[11] = system: rotenone‐induced mouse model of PD; test: Microglia (Iba1) volume and occupied space in substantia nigra, iDISCO; conditions: P < 0.05
[12] = two highest doses (25 and 50 mg·kg^−1)
[13] = po, 50 mg, 5‐day p.o., 50 mg∙kg^−1
[14] = po, 50 mg, single p.o., 50 mg∙kg^−1
[15] = po, 100 mg, 5‐day p.o., 100 mg∙kg^−1
[16] = po, 100 mg, single p.o., 100 mg∙kg^−1

recombinant hIDO1, sequence (P14902 whole entry): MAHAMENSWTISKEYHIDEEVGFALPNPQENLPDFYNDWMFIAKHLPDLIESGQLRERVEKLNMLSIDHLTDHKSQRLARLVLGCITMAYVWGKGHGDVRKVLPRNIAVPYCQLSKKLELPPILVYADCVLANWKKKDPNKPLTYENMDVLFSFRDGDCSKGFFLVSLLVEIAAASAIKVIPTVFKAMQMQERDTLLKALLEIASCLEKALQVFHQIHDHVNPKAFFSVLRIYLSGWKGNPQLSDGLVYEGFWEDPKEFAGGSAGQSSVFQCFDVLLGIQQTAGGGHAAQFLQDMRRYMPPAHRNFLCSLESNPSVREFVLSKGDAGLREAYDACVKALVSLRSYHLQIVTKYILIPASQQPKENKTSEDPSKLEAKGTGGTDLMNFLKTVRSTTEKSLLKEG
T2 sequence (P08183 whole entry): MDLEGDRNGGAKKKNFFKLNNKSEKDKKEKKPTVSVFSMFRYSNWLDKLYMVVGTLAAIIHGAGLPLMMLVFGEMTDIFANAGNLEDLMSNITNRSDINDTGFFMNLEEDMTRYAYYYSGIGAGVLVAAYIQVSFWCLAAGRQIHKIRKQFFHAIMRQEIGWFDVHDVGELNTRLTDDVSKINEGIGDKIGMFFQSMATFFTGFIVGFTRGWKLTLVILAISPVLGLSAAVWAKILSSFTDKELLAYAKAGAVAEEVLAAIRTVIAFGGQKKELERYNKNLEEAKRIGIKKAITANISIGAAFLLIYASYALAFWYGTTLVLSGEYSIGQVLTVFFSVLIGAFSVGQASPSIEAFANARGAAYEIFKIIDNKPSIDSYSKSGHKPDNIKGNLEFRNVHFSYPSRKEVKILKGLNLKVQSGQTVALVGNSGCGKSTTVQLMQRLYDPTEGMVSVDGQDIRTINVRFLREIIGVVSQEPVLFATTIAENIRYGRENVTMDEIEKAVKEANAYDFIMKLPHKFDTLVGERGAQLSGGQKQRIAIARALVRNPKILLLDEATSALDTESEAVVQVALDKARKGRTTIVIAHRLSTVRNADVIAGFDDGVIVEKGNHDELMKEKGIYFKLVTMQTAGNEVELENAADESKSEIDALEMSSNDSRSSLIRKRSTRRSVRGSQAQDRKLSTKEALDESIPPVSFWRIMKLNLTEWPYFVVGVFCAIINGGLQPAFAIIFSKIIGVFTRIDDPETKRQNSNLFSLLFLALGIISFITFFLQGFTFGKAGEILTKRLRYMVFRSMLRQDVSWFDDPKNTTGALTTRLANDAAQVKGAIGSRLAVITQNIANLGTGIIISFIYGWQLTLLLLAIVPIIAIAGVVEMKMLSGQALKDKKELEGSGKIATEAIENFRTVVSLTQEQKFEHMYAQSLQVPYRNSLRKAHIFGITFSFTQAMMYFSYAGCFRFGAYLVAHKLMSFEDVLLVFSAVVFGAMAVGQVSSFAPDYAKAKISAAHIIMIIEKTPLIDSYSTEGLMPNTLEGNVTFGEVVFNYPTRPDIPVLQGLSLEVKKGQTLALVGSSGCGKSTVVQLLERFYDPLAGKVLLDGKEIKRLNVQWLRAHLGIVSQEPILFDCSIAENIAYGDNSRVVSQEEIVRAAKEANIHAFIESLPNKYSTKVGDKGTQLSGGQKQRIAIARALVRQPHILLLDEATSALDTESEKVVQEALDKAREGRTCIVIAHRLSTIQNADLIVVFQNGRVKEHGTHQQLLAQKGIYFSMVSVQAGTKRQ
SW48 (hTDO), sequence (P48775 whole entry): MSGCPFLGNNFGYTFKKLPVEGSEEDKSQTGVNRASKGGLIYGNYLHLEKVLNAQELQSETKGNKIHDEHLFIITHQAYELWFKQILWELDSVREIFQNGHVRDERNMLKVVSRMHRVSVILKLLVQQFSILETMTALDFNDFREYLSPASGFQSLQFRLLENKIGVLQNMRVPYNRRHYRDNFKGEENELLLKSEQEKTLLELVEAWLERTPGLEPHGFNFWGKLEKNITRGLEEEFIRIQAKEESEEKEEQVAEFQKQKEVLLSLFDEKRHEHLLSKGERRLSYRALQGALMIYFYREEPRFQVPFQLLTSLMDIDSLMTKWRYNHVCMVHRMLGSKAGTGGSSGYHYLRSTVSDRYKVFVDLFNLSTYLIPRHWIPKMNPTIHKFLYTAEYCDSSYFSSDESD
mouse TDO (mTDO), sequence (P48776 whole entry): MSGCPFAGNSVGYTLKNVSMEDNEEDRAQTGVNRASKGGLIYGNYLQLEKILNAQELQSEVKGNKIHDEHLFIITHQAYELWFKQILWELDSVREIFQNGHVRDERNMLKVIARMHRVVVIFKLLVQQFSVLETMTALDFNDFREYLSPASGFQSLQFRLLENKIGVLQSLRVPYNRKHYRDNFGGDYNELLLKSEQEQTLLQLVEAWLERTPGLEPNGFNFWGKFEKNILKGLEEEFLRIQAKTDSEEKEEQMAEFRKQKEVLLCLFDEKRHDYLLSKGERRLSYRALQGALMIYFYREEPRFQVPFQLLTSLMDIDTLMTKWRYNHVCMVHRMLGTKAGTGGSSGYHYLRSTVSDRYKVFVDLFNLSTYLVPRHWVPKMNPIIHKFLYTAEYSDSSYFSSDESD
T1 sequence (P08183 whole entry): as the sequence (P08183 whole entry) above

## Fc1ccc2c(/C=C/c3nnn[nH]3)c[nH]c2c1 [LM10, reference compound]
[1]; [12]
  rotenone‐induced loss of TH‐positive cells in the SN: decreased the rotenone‐induced loss of TH‐positive cells
[2]; highest two doses: 25 mg·kg^−1, P < 0.001, 50 mg·kg^−1, P < 0.0001
  GFAP staining in colon: decrease of GFAP staining
[3]; [12]
  intestinal transit of the PD mice: improved the intestinal transit
[4]
  cytotoxicity: not cytotoxic
[5]; all doses: 12.5 mg·kg^−1, P < 0.01, 25 and 50 mg·kg^−1, P < 0.001
  expression of α‐synuclein in the enteric plexus: decrease in the expression of α‐synuclein
SW48 (hTDO); SW48, read-out: inhibition in SW48 cells
  inhibition at 31.6 µM: 50%
Recombinant hIDO1
  inhibition at 0.6 µM: < 20%
Mouse TDO (mTDO)
  IC50: 1070 nM
[6]; highest dose (50 mg·kg^−1), similar trend
  rotenone‐induced spatial recognition loss: not statistically significant
[7]
  P‐glycoprotein substrate status: not a P‐glycoprotein substrate
[8]
  Papp A→B: 5.63 ×10⁻⁶ cm/s
  Papp B→A: 1.58 ×10⁻⁶ cm/s
TDO activity in vivo; single p.o. 50 mg·kg^−1
  Trp levels in plasma and brain compared to vehicle: no increase
TDO activity in vivo; single p.o. 50 mg·kg^−1, 0.25 h P < 0.01, 0.5 h P < 0.05
  Kyn levels in plasma: only the initial decrease in Kyn levels was found to be significant
[9]; [12]
  colon length (rotenone‐induced intestinal inflammatory response): reduced the rotenone‐induced intestinal inflammatory response
[10]; 50 mg/kg, single p.o. 50 mg∙kg^−1 compared with i.v. 10 mg∙kg^−1
  bioavailability: 63%
[10]; iv, 10 mg, 10 mg∙kg^−1
  AUC: 985 µM·h
  Cmax: 427 µM
  half-life: 1.77 h
[10]; po, 50 mg
  Kp: 0.006
  Kp at 5 days: 0.01
[10]; [13]
  AUC: 2360 µM·h
  Cmax: 391 µM
  Kp uu: 0.02
  half-life: 2.35 h
[10]; [14]
  AUC: 3100 µM·h
  Cmax: 688 µM
  Kp uu: 0.012
  half-life: 3.09 h
[10]; 5‐day p.o., 50 mg∙kg^−1
  AUCbrain: 23.8 µM·h
[10]; single p.o. 50 mg∙kg^−1 compared with i.v. 10 mg∙kg^−1
  F (oral bioavailability): 63.1%
[10]; single p.o., 50 mg∙kg^−1
  AUCbrain: 18.5 µM·h
[11]; highest dose (50 mg·kg^−1)
  mean microglia volume in the SN of rotenone‐treated mice: reduced the mean microglia volume

## C[C@@H](CO)NC(=O)c1ccc(-c2c[nH]c3cc(F)ccc23)cc1 [NTRC 3531‐0]
[1]; highest dose (100 mg·kg^−1)
  rotenone‐induced loss of TH‐positive cells in the SN: decreased the rotenone‐induced loss of TH‐positive cells
[2]; highest two doses (50 and 100 mg·kg^−1), P < 0.0001 for both doses
  GFAP staining in colon: decrease of GFAP staining
[3]; highest dose (100 mg·kg^−1)
  intestinal transit of the PD mice: improved the intestinal transit
[4]
  cytotoxicity: not cytotoxic
[5]; all doses: 25 mg·kg^−1, P < 0.05, 50 and 100 mg·kg^−1, P < 0.01
  expression of α‐synuclein in the enteric plexus: decrease in the expression of α‐synuclein
SW48 (hTDO)
  IC50: 220 nM
Recombinant hIDO1; highest tested concentration 31.6 µM
  activity on hIDO1 in the biochemical assay: inactive
Recombinant hIDO1
  inhibition at 0.6 µM: < 20%
Mouse TDO (mTDO)
  IC50: 846 nM
[6]; highest dose (100 mg·kg^−1), P < 0.001
  rotenone‐induced spatial recognition loss: significantly less rotenone‐induced spatial recognition loss
[7]
  P‐glycoprotein substrate status: could be a weak substrate of P‐glycoprotein
[8]
  Papp A→B: 15.7 ×10⁻⁶ cm/s
  Papp B→A: 52 ×10⁻⁶ cm/s
  efflux ratio: 3.32
TDO activity in vivo; single p.o. 100 mg·kg^−1, 0.25 and 0.5 h, no statistical significance
  Kyn levels in plasma at early timepoints: slightly decreased
TDO activity in vivo; single p.o. 100 mg·kg^−1, 1 and 2 h, P < 0.05
  Kyn levels in plasma, subsequent timepoints: increased
TDO activity in vivo; single p.o. 100 mg·kg^−1, 1 h P < 0.01, 2 h P < 0.0001, 7 h P < 0.01
  concentration of Trp in plasma compared to vehicle: increase
TDO activity in vivo; single p.o. 100 mg·kg^−1, 12 h P < 0.01, 24 h P < 0.05
  Kyn levels in brain: increased
TDO activity in vivo; single p.o. 100 mg·kg^−1, P < 0.0001 at 1, 12 and 24 h
  concentration of Trp in brain compared to vehicle: increase
[9]; highest dose (100 mg·kg^−1)
  colon length (rotenone‐induced intestinal inflammatory response): reduced the rotenone‐induced intestinal inflammatory response
[10]; 100 mg/kg, single p.o. 100 mg∙kg^−1 compared with single i.v. 10 mg∙kg^−1
  bioavailability: 22%
[10]; iv, 10 mg, 10 mg∙kg^−1
  AUC: 93.2 µM·h
  Cmax: 56.5 µM
  half-life: 0.903 h
[10]; po, 100 mg
  Kp: 0.41
  Kp at 5 days: 0.37
[10]; [15]
  AUC: 210 µM·h
  Cmax: 33.2 µM
  Kp uu: 0.067
  half-life: 3.13 h
[10]; [16]
  AUC: 207 µM·h
  Cmax: 37.5 µM
  Kp uu: 0.074
  half-life: 2.49 h
[10]; 5‐day p.o., 100 mg∙kg^−1
  AUCbrain: 77.0 µM·h
[10]; single p.o. 100 mg∙kg^−1 compared with single i.v. 10 mg∙kg^−1
  F (oral bioavailability): 22.3%
[10]; single p.o., 100 mg∙kg^−1
  AUCbrain: 84.5 µM·h
[11]; highest dose (100 mg·kg^−1)
  mean microglia volume in the SN of rotenone‐treated mice: reduced the mean microglia volume
